Data taken from patent publication US7807673B2, “2-pyrimidinyl pyrazolopyridine ErbB kinase inhibitors” (GlaxoSmithKline LLC, priority 2005, dated 2010).

How the values were obtained:
ErbB2 or EGFR [1] = biological target: T1, ErbB2 or EGFR; assay: ErbB enzyme substrate phosphorylation assay (HTRF), Method A; format: biochemical; conditions: Table 1, enzyme Method A: substrate mix added first, reaction started with enzyme mix; class over ErbB2 or EGFR
T1 construct: enzymes purified from a baculovirus expression system
Experimental: Compounds of the present invention were tested for EGFR, ErbB-2, and ErbB-4 protein tyrosine kinase inhibitory activity in substrate phosphorylation assays using enzymes purified from a baculovirus expression system. Reagent production was conducted essentially as described in Brignola, P. S., et al, (2002) J. Biol. Chem. 277(2): 1576-1585.
The method measures the ability of the isolated enzyme to catalyse the transfer of the gamma-phosphate from ATP onto the tyrosine residue of a biotinylated synthetic peptide referenced “Peptide C” in Brignola, P. S., et al, (2002) J. Biol. Chem. 277(2):1576-1585. The extent of tyrosine phosphorylation was measured using an anti-phosphotyrosine antibody, and quantified by homogenous time-resolved fluorescence (HTRF).
Reactions were performed in black 384-well polystyrene flat-bottom plates in a final volume of 20 μl. Assays were performed by adding 10 μl of each of the following solutions, substrate Mix and enzyme mix: The Substrate mix contained 100 mM 3-[N-morpholino]propanesulfonic acid (MOPS) (pH 7.5), 2 mM MnCl2, 20 μM ATP, 0.01% Tween-20, 0.1 mg/mL (BSA), 0.8 uM peptide substrate, and 1 mM dithiothreitol. The enzyme mix contained 100 mM MOPS (pH7.5); 0.01% Tween-20; 0.1 mg/mL BSA, and either 0.8 nM EGFR, 10 nM ErbB2, or 1 nM ErbB4
During the course of these studies, two separate methods have been used to measure the potency of compounds. In Method A, the substrate mix was added to the compound plates first, then the reaction was started by adding the enzyme mix. In Method B, the enzyme mix was added to the compound plates and the plates were incubated at 20° C. for 1 hour. The reactions were then started by adding the substrate mix.
After initiating the reaction with either method describe above, the reactions were allowed to proceed for 90 minutes at 20° C. The reactions were then terminated by the addition of 20 μl 100 mM EDTA to each well. 40 μl/well of HTRF detection mix were added to the assay plates. The final concentrations of the detection reagents were: 100 mM HEPES (pH7.5), 0.1 mg/mL BSA, 15 nM streptavidin-labeled allophycocyanin (PerkinElmer), and 1 nM europium-labeled anti-phosphotyrosine antibody (PerkinElmer). Assay plates were left unsealed and were counted in a Wallac Multilabel Counter 1420 (PerkinElmer). […]
The data for dose responses were plotted as % Inhibition calculated with the data reduction formula 100*(1−(U1−C2)/(C1−C2)) versus concentration of compound where U is the unknown value, C1 is the average control value obtained for 4.76% DMSO, and C2 is the average control value obtained for 0.035 M EDTA. […] The results for each compound were recorded as pIC50s, calculated as follows: pIC50=−Log 10(K)

ErbB2 or EGFR [2] = biological target: T1, ErbB2 or EGFR; assay: ErbB enzyme substrate phosphorylation assay (HTRF), Method B (enzyme pre-incubated with compound 1 hour); format: biochemical; conditions: Table 1, enzyme Method B: enzyme mix incubated with compound 1 hour at 20° C., reaction started with substrate mix; class over ErbB2 or EGFR
How it was run: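 Baculovirus-expressed kinase (0.8 nM EGFR or 10 nM ErbB2 in enzyme mix) phosphorylated biotinylated Peptide C (0.8 µM in substrate mix) with 20 µM ATP in substrate mix, MOPS pH 7.5, MnCl2, 90 min at 20 °C. Method A started with enzyme; Method B pre-incubated enzyme with compound 1 h at 20 °C. HTRF read-out; IC50 from 12-point curve (0.00027–47.6 µM), reported as pIC50.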

Colo205 tumor cell lines = assay: Methylene blue growth inhibition assay (cellular Method A); format: cell-based; conditions: Homo sapiens, COLO 205, 72 h, Table 3, Method A methylene blue, 3 days
Experimental: (§1) Human breast (BT474) and head and neck (HN5) were cultured in low glucose DMEM (Life Technologies 12320-032) containing 10% fetal bovine serum (FBS). Human colon tumor cells (Colo205) were cultured in DMEM (Invitrogen, 10564) containing 10% FBS. The SV40 transformed human mammary epithelial cell line to HB4a was transfected with either human H-ras cDNA (HB4a r4.2) or the human c-ErbB2 cDNA (HB4a c5.2). The HB4a clones were cultured in RPMI containing 10% FBS, insulin ([…]), hydrocortisone ([…]), supplemented with the selection agent hygromycin B ([…]). All lines were grown in a humidified incubator at 37° C. in 95% air, 5% CO2. Cells were harvested using trypsin/EDTA, counted using a haemocytometer, and plated in 100 microliters of the appropriate media, at the following densities, in a 96-well tissue culture plate (Falcon 3075): BT474 10,000 cells/well, HN5 3,000 cells/well. The next day, compounds were diluted in DMEM containing […] gentamicin, at twice the final required concentration, from 10 mM stock solutions in DMSO. 100 microliters/well of these dilutions were added to the 100 microliters of media currently on the cell plates. Medium containing 0.6% DMSO was added to control wells. Compounds diluted in DMEM were added to all cell lines. The final concentration of DMSO in all wells was 0.3%. Cells were returned to the incubator (37° C., […]) for 3 days. Medium was then removed by aspiration. Cell biomass was estimated by staining cells with 90 microliters per well methylene blue (Sigma M9140, 0.5% in 1:1 ethanol:water), and incubation at rt for at least 30 minutes. Stain was removed, and the plates rinsed by immersion in deionized water and air-dried. To release stain from the cells 100 microliters of solubilization solution was added (1% N-lauroyl sarcosine, Sodium salt, Sigma L5125, in PBS), and plates were shaken gently for about 30 minutes. Optical density at 620 nm was measured on a microplate reader. Percent inhibition of cell growth was calculated relative to vehicle treated control wells. Concentration of compound that inhibits 50% of control cell growth (IC50) was interpolated using nonlinear regression (Levenberg-Marquardt) and the equation, y=Vmax*(1−(x/(K+x)))+Y2, where “K” was equal to the IC50. Method B: Celltiter Glo® Growth Inhibition Assays

[3] = tested on: BT474 and HN5 tumor cell lines; assay: as above; format: cell-based; conditions: Homo sapiens, BT-474 and HN5, 72 h; Table 2, Method A methylene blue, 3 days; class over BT474 and HN5;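 note: class counts the more potent of the two cell lines (BT474 or HN5)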
Experimental: as §1

O=C(Cc1cc(F)ccc1F)Nc1cccc(-c2nn3ccccc3c2-c2ccnc(Nc3ccccc3)n2)c1 [Example 6, 2-(2,5-Difluorophenyl)-N-(3-{3-[2-(phenylamino)-4-pyrimidinyl]pyrazolo[1,5-a]pyridin-2-yl}phenyl)acetamide]
Activity (Method) (ErbB2 or EGFR [1]): ++ (A) (at least one pIC50 measurement greater than 6 against either ErbB2 or EGFR but no measurement greater than pIC50 of 7)

CN(C)CCCNc1ccc(Nc2nccc(-c3c(-c4cccc(NC(=O)Cc5cccs5)c4)nn4ccccc34)n2)cc1F [Example 2, N-[3-(3-{2-[(4-{[3-(Dimethylamino)propyl]amino}-3-fluorophenyl)amino]-4-pyrimidinyl}pyrazolo[1,5-a]pyridin-2-yl)phenyl]-2-(2-thienyl)acetamide]
Activity (Method) (ErbB2 or EGFR [2]): +++ (B) (at least one pIC50 measurement of greater than 7 against either ErbB2 or EGFR) | IC50 (Colo205 tumor cell lines): 100 to 1000 nM | IC50 [3]: < 100 nM

CN(C)Cc1cccc(Nc2nccc(-c3c(-c4cccc(NC(=O)Cc5ccccn5)c4)nn4ccccc34)n2)c1 [Example 27, N-(3-{3-[2-({3-[(Dimethylamino)methyl]phenyl}amino)-4-pyrimidinyl]pyrazolo[1,5-a]pyridin-2-yl}phenyl)-2-(2-pyridinyl)acetamide]
Activity (Method) (ErbB2 or EGFR [2]): ++ (B) (at least one pIC50 measurement greater than 6 against either ErbB2 or EGFR but no measurement greater than pIC50 of 7) | IC50 (Colo205 tumor cell lines): > 1000 nM | IC50 [3]: > 1000 nM

CN(C)CCOc1cccc(Nc2nccc(-c3c(-c4cccc(NC(=O)Cc5ccsc5)c4)nn4ccccc34)n2)c1 [Example 39, N-[3-(3-{2-[(3-{[2-(dimethylamino)ethyl]oxy}phenyl)amino]-4-pyrimidinyl}pyrazolo[1,5-a]pyridin-2-yl)phenyl]-2-(3-thienyl)acetamide]
Activity (Method) (ErbB2 or EGFR [2]): +++ (B) (at least one pIC50 measurement of greater than 7 against either ErbB2 or EGFR) | IC50 (Colo205 tumor cell lines): 100 to 1000 nM | IC50 [3]: 100 to 1000 nM

O=C(Cc1cccc(Cl)c1)Nc1cccc(-c2nn3ccccc3c2-c2ccnc(Nc3ccccc3)n2)c1 [Example 5, 2-(3-Chlorophenyl)-N-(3-{3-[2-(phenylamino)-4-pyrimidinyl]pyrazolo-[1,5-a]pyridin-2-yl}phenyl)acetamide]
Activity (Method) (ErbB2 or EGFR [1]): + (A) (no pIC50 measurement greater than 6 against either ErbB2 or EGFR)

O=C(Cc1cccs1)Nc1cccc(-c2nn3ccccc3c2-c2ccnc(Nc3ccccc3)n2)c1 [Example 4, N-(3-{3-[2-(Phenylamino)-4-pyrimidinyl]pyrazolo[1,5-a]pyridin-2-yl}phenyl)-2-(2-thienyl)acetamide]
Activity (Method) (ErbB2 or EGFR [1]): ++ (A) (at least one pIC50 measurement greater than 6 against either ErbB2 or EGFR but no measurement greater than pIC50 of 7)

CN(C)CCCOc1cccc(Nc2nccc(-c3c(-c4cccc(NC(=O)Cc5cccs5)c4)nn4ccccc34)n2)c1 [Example 12, N-[3-(3-{2-[(3-{[3-(Dimethylamino)propyl]oxy}phenyl)-amino]-4-pyrimidinyl}pyrazolo[1,5-a]pyridin-2-yl)phenyl]-2-(2-thienyl)acetamide]
Activity (Method) (ErbB2 or EGFR [2]): +++ (B) (at least one pIC50 measurement of greater than 7 against either ErbB2 or EGFR) | IC50 (Colo205 tumor cell lines): 100 to 1000 nM | IC50 [3]: 100 to 1000 nM

CN(C)C1Cc2ccc(Nc3nccc(-c4c(-c5cccc(NC(=O)Cc6cccs6)c5)nn5ccccc45)n3)cc2C1 (stereo not drawn) [Example 53, N-{3-[3-(2-{[2-(Dimethylamino)-2,3-dihydro-1H-inden-5-yl]amino}pyrimidin-4-yl)pyrazolo[1,5-a]pyridin-2-yl]phenyl}-2-(2-thienyl)acetamide]
Activity (Method) (ErbB2 or EGFR [2]): +++ (B) (at least one pIC50 measurement of greater than 7 against either ErbB2 or EGFR) | IC50 (Colo205 tumor cell lines): 100 to 1000 nM | IC50 [3]: 100 to 1000 nM

NCc1cccc(Nc2nccc(-c3c(-c4cccc(NC(=O)Cc5ccsc5)c4)nn4ccccc34)n2)c1 [Example 43, N-{3-[3-(2-{[3-(Aminomethyl)phenyl]amino}-4-pyrimidinyl)pyrazolo[1,5-a]pyridin-2-yl]phenyl}-2-(3-thienyl)acetamide]
Activity (Method) (ErbB2 or EGFR [2]): +++ (B) (at least one pIC50 measurement of greater than 7 against either ErbB2 or EGFR) | IC50 (Colo205 tumor cell lines): > 1000 nM | IC50 [3]: 100 to 1000 nM

CN(C)CCOc1cccc(Nc2nccc(-c3c(-c4cccc(NC(=O)Cc5cccs5)c4)nn4ccccc34)n2)c1 [Example 15, N-[3-(3-{2-[(3-{[2-(Dimethylamino)ethyl]oxy}phenyl)amino]-4-pyrimidinyl}pyrazolo[1,5-a]pyridin-2-yl)phenyl]-2-(2-thienyl)acetamide]
Activity (Method) (ErbB2 or EGFR [2]): +++ (B) (at least one pIC50 measurement of greater than 7 against either ErbB2 or EGFR) | IC50 (Colo205 tumor cell lines): 100 to 1000 nM | IC50 [3]: 100 to 1000 nM

Cc1cc(CC(=O)Nc2cccc(-c3nn4ccccc4c3-c3ccnc(Nc4cccc(CN(C)C)c4)n3)c2)on1 [Example 28, N-(3-{3-[2-({3-[(Dimethylamino)methyl]-phenyl}amino)-4-pyrimidinyl]pyrazolo[1,5-a]pyridin-2-yl}phenyl)-2-(3-methyl-5-isoxazolyl)acetamide]
Activity (Method) (ErbB2 or EGFR [2]): +++ (B) (at least one pIC50 measurement of greater than 7 against either ErbB2 or EGFR) | IC50 (Colo205 tumor cell lines): > 1000 nM | IC50 [3]: > 1000 nM

O=C(Cc1cccs1)Nc1cccc(-c2nn3ccccc3c2-c2ccnc(Nc3ccc4c(c3)CNCC4)n2)c1 [Example 16, N-(3-{3-[2-(1,2,3,4-Tetrahydro-7-isoquinolinylamino)-4-pyrimidinyl]pyrazolo[1,5-a]pyridin-2-yl}phenyl)-2-(2-thienyl)acetamide]
Activity (Method) (ErbB2 or EGFR [2]): +++ (B) (at least one pIC50 measurement of greater than 7 against either ErbB2 or EGFR) | IC50 (Colo205 tumor cell lines): 100 to 1000 nM | IC50 [3]: 100 to 1000 nM
